We go through 33 compounds from patent publication US20230416228A1 (Forkhead Biotherapeutics, Inc., priority 2020, published 2023).

The IC50 is the concentration at which inhibition is half-maximal. The low end stands for higher potency, the high end for lower potency.

The target in the experiment is T1, human FOXO1 (constitutively active form Thr24Ala, Ser256Ala, Ser319Ala) (Homo sapiens, UniProt Q12778, S256A/S319A/T24A).
T1 construct: expressed in transfected cells; host or cells: HEK293 cells transfected with pcDNA3.1 plasmid
T1 sequence (Q12778 whole entry T24A/S256A/S319A): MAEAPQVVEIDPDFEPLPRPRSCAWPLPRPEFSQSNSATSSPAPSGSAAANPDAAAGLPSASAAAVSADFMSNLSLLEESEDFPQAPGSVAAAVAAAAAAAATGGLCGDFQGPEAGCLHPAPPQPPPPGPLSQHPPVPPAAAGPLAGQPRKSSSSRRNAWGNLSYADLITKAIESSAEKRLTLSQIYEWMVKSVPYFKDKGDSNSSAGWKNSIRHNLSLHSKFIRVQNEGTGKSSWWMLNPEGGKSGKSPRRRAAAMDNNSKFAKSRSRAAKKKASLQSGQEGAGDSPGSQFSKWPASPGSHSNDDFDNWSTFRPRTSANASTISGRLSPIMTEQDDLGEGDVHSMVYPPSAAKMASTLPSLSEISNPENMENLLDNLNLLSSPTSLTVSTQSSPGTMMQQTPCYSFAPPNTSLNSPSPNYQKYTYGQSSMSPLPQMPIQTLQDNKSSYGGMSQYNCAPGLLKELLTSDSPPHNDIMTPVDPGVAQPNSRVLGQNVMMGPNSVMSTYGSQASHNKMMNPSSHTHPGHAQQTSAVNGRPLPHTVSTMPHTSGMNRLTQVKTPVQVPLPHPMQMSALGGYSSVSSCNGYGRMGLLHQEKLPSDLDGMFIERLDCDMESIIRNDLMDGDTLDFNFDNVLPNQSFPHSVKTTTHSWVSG
Briefly: FOXO1 inhibitor activity assay: cell-based transcriptional (luciferase) reporter assay in HEK293 cells. As to conditions: HEK293 cells transfected with insulin response element firefly luciferase reporter, FOXO1 and Renilla luciferase; 10-point dose response 50 μM to 2.5 nM; 24 hours. In short, it runs like this: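 IC50 and maximal inhibition were fitted by 4-parameter logistic regression on normalized firefly/Renilla luciferase ratios. The 0% reference used RFP in place of FOXO1, and the 100% reference was DMSO-only with all plasmids.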

The structures appear in SMILES notation.

In the case of `CC1CN(c2ccc(C(=O)Nc3cc(-c4nc5ccccc5[nH]4)n(C)n3)cn2)CC(CO)O1` (single isomer, unassigned) [Compound A-293, N-[5-(1H-benzimidazol-2-yl)-1-methyl-pyrazol-3-yl]-6-[2-(hydroxymethyl)-6-methyl-morpholin-4-yl]pyridine-3-carboxamide], the IC50 lay within 100 to 300 nM.

In the case of `COC1CN(c2ccc(C(=O)Nc3cc(-c4nc5cc(F)ccc5[nH]4)[nH]n3)cn2)C1` [Compound A-132, N-[5-(5-fluoro-1H-benzimidazol-2-yl)-1H-pyrazol-3-yl]-6-(3-methoxy-azetidin-1-yl)pyridine-3-carboxamide], the IC50 is < 100 nM.

For the compound `Cn1nc(NC(=O)c2ccc(N3CCC(CO)CC3)nc2)cc1-c1nc2ccccc2[nH]1` [Compound A-96, N-[5-(1H-benzimidazol-2-yl)-1-methyl-pyrazol-3-yl]-6-[4-(hydroxy-methyl)-1-piperidyl]pyridine-3-carboxamide], the IC50 was < 100 nM. Next, `Cc1cc(C(=O)Nc2cc(-c3nc4ccccc4[nH]3)[nH]n2)ccc1OCCO` [Compound A-113, N-[5-(1H-benzimidazol-2-yl)-1H-pyrazol-3-yl]-4-(2-hydroxyethoxy)-3-methyl-benzamide]: < 100 nM; `COc1cc(F)c2[nH]c(-c3cc(NC(=O)c4ccc(N5CCOC(CO)C5)nc4)nn3C)nc2c1` (stereo not drawn) [Compound A-237, N-[5-(7-fluoro-5-methoxy-1H-benzimidazol-2-yl)-1-methyl-pyrazol-3-yl]-6-[2-(hydroxymethyl)morpholin-4-yl]pyridine-3-carboxamide]: < 100 nM; `COCCn1nc(NC(=O)c2ccc(OC)c(Cl)c2)cc1-c1nc2ccccc2[nH]1` [Compound A-175, N-[5-(1H-benzimidazol-2-yl)-1-(2-methoxyethyl)pyrazol-3-yl]-3-chloro-4-methoxy-benzamide]: > 1000 nM. As for `O=C(O)CN1CCN(c2ccc(C(=O)Nc3cc(-c4nc5ccccc5[nH]4)[nH]n3)cn2)CC1` [Compound A-156, 2-[4-[5-[[5-(1H-benzimidazol-2-yl)-1H-pyrazol-3-yl]carbamoyl]-2-pyridyl]piperazin-1-yl]acetic acid], the figure is > 1000 nM. As for `Cn1nc(NC(=O)c2ccc(N3CCNC4(CC4)C3)nc2)cc1-c1nc2ccccc2[nH]1` [Compound A-281, N-[5-(1H-benzimidazol-2-yl)-1-methyl-pyrazol-3-yl]-6-(4,7-diazaspiro[2.5]octan-7-yl)pyridine-3-carboxamide], the IC50 was < 100 nM. Next, `COCCOc1ccc(C(=O)Nc2cc(-c3nc4cccc(F)c4[nH]3)n(C)n2)cc1Cl` [Compound A-164, 3-chloro-N-[5-(7-fluoro-1H-benzimidazol-2-yl)-1-methyl-pyrazol-3-yl]-4-(2-methoxyethoxy)benzamide]: < 100 nM. Next, `COc1ccc(C(=O)Nc2cc(-c3nc4cc(F)ccc4[nH]3)n(C)n2)cc1Cl` [Compound A-126, 3-chloro-N-[5-(5-fluoro-1H-benzimidazol-2-yl)-1-methyl-pyrazol-3-yl]-4-methoxy-benzamide]: < 100 nM; `Cn1nc(NC(=O)c2ccc(N3CCNC(CO)C3)nc2)cc1-c1nc2ccccc2[nH]1` (stereo not drawn) [Compound A-258, N-[5-(1H-benzimidazol-2-yl)-1-methyl-pyrazol-3-yl]-6-[3-(hydroxy-methyl)piperazin-1-yl]pyridine-3-carboxamide]: 300 to 1000 nM. As for `CC(=O)N(C)C1CCN(c2ccc(C(=O)Nc3cc(-c4nc5ccccc5[nH]4)[nH]n3)cn2)CC1` [Compound A-170, 6-[4-[acetyl(methyl)amino]-1-piperidyl]-N-[5-(1H-benzimidazol-2-yl)-1H-pyrazol-3-yl]pyridine-3-carboxamide], the figure is 100 to 300 nM; as for `COc1cc(F)c2[nH]c(-c3cc(NC(=O)c4ccc(N5CCC(OC)CC5)nc4)nn3C)nc2c1` [Compound A-189, N-[5-(7-fluoro-5-methoxy-1H-benzimidazol-2-yl)-1-methyl-pyrazol-3-yl]-6-(4-methoxy-1-piperidyl)pyridine-3-carboxamide], < 100 nM.

`CN1CCN(c2ccc(C(=O)Nc3cc(-c4nc5ccccc5[nH]4)n(C)n3)cc2)CC1=O` [Compound A-235, N-[5-(1H-benzimidazol-2-yl)-1-methyl-pyrazol-3-yl]-4-(4-methyl-3-oxo-piperazin-1-yl)benzamide] had an IC50 of 100 to 300 nM. Next, `COc1ccc(Nc2nccc(-c3nc4ccccc4[nH]3)n2)cc1Cl` [Compound A-92, 4-(1H-benzimidazol-2-yl)-N-(3-chloro-4-methoxy-phenyl)pyrimidin-2-amine]: > 1000 nM; `O=C(Nc1cc(-c2nc3cc(Cl)ccc3[nH]2)[nH]n1)c1ccc(N2CCC(O)CC2)nc1` [Compound A-87, N-[5-(5-chloro-1H-benzimidazol-2-yl)-1H-pyrazol-3-yl]-6-(4-hydroxy-1-piperidyl)pyridine-3-carboxamide]: > 1000 nM.

Turning to `COCCCOc1ccc(C(=O)Nc2cc(-c3nc4cc(OC)ccc4[nH]3)[nH]n2)cc1Cl` [Compound A-58, 3-chloro-N-[5-(5-methoxy-1H-benzimidazol-2-yl)-1H-pyrazol-3-yl]-4-(3-methoxypropoxy)benzamide], the IC50 is < 100 nM. Regarding `CCOC(=O)[C@@H]1CCCN1c1ccc(C(=O)Nc2cc(-c3nc4cccc(F)c4[nH]3)n(C)n2)cn1` [Compound A-147, ethyl (2S)-1-[5-[[5-(4-fluoro-1H-benzimidazol-2-yl)-1-methyl-pyrazol-3-yl]carbamoyl]-2-pyridyl]pyrrolidine-2-carboxylate], the IC50 was > 1000 nM.

Compound `CN1CCN(c2ccc(C(=O)Nc3cc(-c4nc5ccccc5[nH]4)[nH]n3)cc2)CC1=O` [Compound A-242, N-[5-(1H-benzimidazol-2-yl)-1H-pyrazol-3-yl]-4-(4-methyl-3-oxo-piperazin-1-yl)benzamide] yielded an IC50 of 100 to 300 nM.

Compound `CC(=O)N1CCN(c2ccc(C(=O)Nc3cc(-c4nc5ccccc5[nH]4)n(C)n3)cn2)CC1` [Compound A-226, 6-(4-acetylpiperazin-1-yl)-N-[5-(1H-benzimidazol-2-yl)-1-methyl-pyrazol-3-yl]pyridine-3-carboxamide] came in with an IC50 of 100 to 300 nM.

As for `COC1CN(c2ccc(C(=O)Nc3cc(-c4nc5cccc(F)c5[nH]4)[nH]n3)cn2)C1` [Compound A-131, N-[5-(7-fluoro-1H-benzimidazol-2-yl)-1H-pyrazol-3-yl]-6-(3-methoxy-azetidin-1-yl)pyridine-3-carboxamide], the 50% inhibitory concentration (IC50) was 100 to 300 nM.

As to `O=C(Nc1cc(-c2nc3ccccc3[nH]2)[nH]n1)c1ccc(N2CCC(O)CC2)cc1` [Compound A-36, N-[5-(1H-benzimidazol-2-yl)-1H-pyrazol-3-yl]-4-(4-hydroxy-1-piperidyl)-benzamide], the IC50 is < 100 nM. On to `COc1ccc2nc(-c3cc(NC(=O)c4ccc(OC)c(Cl)c4)n[nH]3)cn2c1` [Compound A-161, 3-chloro-4-methoxy-N-[5-(6-methoxyimidazo[1,2-a]pyridin-2-yl)-1H-pyrazol-3-yl]benzamide], for which the IC50 is 100 to 300 nM.

Consider `C[C@@H]1CN(c2ccc(C(=O)Nc3cc(-c4nc5ccccc5[nH]4)n(C)n3)cn2)C[C@H](C)N1` [Compound A-255, N-[5-(1H-benzimidazol-2-yl)-1-methyl-pyrazol-3-yl]-6-[(3R,5S)-3,5-dimethylpiperazin-1-yl]pyridine-3-carboxamide], for which the IC50 is < 100 nM.

`CN1CCN(c2ccc(C(=O)Nc3cc(-c4nc5ccccc5[nH]4)n(CCO)n3)cc2)CC1` [Compound A-201, N-[5-(1H-benzimidazol-2-yl)-1-(2-hydroxyethyl)pyrazol-3-yl]-4-(4-methylpiperazin-1-yl)benzamide] had an IC50 of 300 to 1000 nM. `COC1CCN(c2ccc(C(=O)Nc3cc(-c4nc5cccc(F)c5[nH]4)n(C)n3)cn2)CC1` [Compound A-157]: the IC50 is 100 to 300 nM. Next, `O=C(Nc1cc(-c2nc3ccccc3[nH]2)[nH]n1)c1ccc(N2CCC(N3CCOCC3)CC2)nc1` [Compound A-172, N-[5-(1H-benzimidazol-2-yl)-1H-pyrazol-3-yl]-6-(4-morpholino-1-piperidyl)pyridine-3-carboxamide]: < 100 nM; `COc1ccc2[nH]c(-c3cc(NC(=O)c4ccc(OCCO)c(Cl)c4)n[nH]3)nc2c1` [Compound A-117, 3-chloro-4-(2-hydroxyethoxy)-N-[5-(5-methoxy-1H-benzimidazol-2-yl)-1H-pyrazol-3-yl]benzamide formic acid]: < 100 nM. For the compound `Cn1nc(NC(=O)c2ccc(N3CCN(C4COC4)CC3)nc2)cc1-c1nc2cc(F)ccc2[nH]1` [Compound A-160], the IC50 was 300 to 1000 nM.

`COC1CN(c2ccc(C(=O)Nc3cc(-c4nc5cc(F)ccc5[nH]4)n(C)n3)cn2)C1` [Compound A-128, N-[5-(5-fluoro-1H-benzimidazol-2-yl)-1-methyl-pyrazol-3-yl]-6-(3-methoxyazetidin-1-yl)pyridine-3-carboxamide] displayed an IC50 of 300 to 1000 nM. As to `CC1CN(c2ccc(C(=O)Nc3cc(-c4nc5ccccc5[nH]4)n(C)n3)cn2)CC(CO)O1` (single isomer, unassigned) [Compound A-292, N-[5-(1H-benzimidazol-2-yl)-1-methyl-pyrazol-3-yl]-6-[2-(hydroxymethyl)-6-methyl-morpholin-4-yl]pyridine-3-carboxamide], the IC50 was < 100 nM.

As to `Cn1nc(NC(=O)c2ccc(N3CC4(CC(O)C4)C3)nc2)cc1-c1nc2ccccc2[nH]1` [Compound A-274, N-[5-(1H-benzimidazol-2-yl)-1-methyl-pyrazol-3-yl]-6-(6-hydroxy-2-azaspiro[3.3]heptan-2-yl)pyridine-3-carboxamide], the IC50 lay within 100 to 300 nM.

As to `COCCN1CCN(c2ccc(C(=O)Nc3cc(-c4nc5ccccc5[nH]4)[nH]n3)cc2)CC1` [Compound A-174, N-[5-(1H-benzimidazol-2-yl)-1H-pyrazol-3-yl]-4-[4-(2-methoxyethyl)-piperazin-1-yl]benzamide], the IC50 was < 100 nM.
